Laboratory results: the supplement of paper PMC10307832

What was measured:
Assay in all cases: relative viability (nuclei count vs DMSO), 5 days (fraction); higher = more cells survive
[1] = compound: CN(C)CC1=CC(=CC=C1)N=C(C2=CC=CC=C2)C3=C(NC4=C3C=CC(=C4)C(=O)N(C)C)O + CCNC(=O)c1noc(-c2cc(C(C)C)c(O)cc2O)c1-c1ccc(CN2CCOCC2)cc1 [Luminespib] (partner 0.01 µM)
Outline: (§1)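 Relative viability was taken as the ratio of nuclei in treated wells to nuclei in vehicle wells. Lung cancer cell lines in 1536-well plates received compounds by pin tool one day after seeding, either one drug alone or a fixed anchor-drug dose plus five library-drug doses (not always all listed) in √10 steps. Nuclei were counted on 4× images after 5 days of treatment, and values are medians of duplicate plates.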

[2] = compound: CN(C)CC1=CC(=CC=C1)N=C(C2=CC=CC=C2)C3=C(NC4=C3C=CC(=C4)C(=O)N(C)C)O + Cc1cc(Nc2cc(N3CCN(C)CC3)nc(Sc3ccc(NC(=O)C4CC4)cc3)n2)n[nH]1 [Tozasertib] (partner 0.1 µM)
Outline: as §1

[3] = compound: CN(C)CC1=CC(=CC=C1)N=C(C2=CC=CC=C2)C3=C(NC4=C3C=CC(=C4)C(=O)N(C)C)O + Cc1nc(Nc2ncc(C(=O)Nc3c(C)cccc3Cl)s2)cc(N2CCN(CCO)CC2)n1 [Dasatinib] (partner 0.075 µM)
Outline: as §1

[4] = compound: CN(C)CC1=CC(=CC=C1)N=C(C2=CC=CC=C2)C3=C(NC4=C3C=CC(=C4)C(=O)N(C)C)O + Cc1nc(NC(=O)N2CCC[C@H]2C(N)=O)sc1-c1ccnc(C(C)(C)C(F)(F)F)c1 [Alpelisib] (partner 2 µM)
Outline: as §1

Row | Cell Line | relative viability ([1]; first compound 0.08 µM) | relative viability ([1]; first compound 0.253 µM) | relative viability ([1]; first compound 0.8 µM) | relative viability ([1]; first compound 2.53 µM) | relative viability ([1]; first compound 8 µM) | relative viability ([2]; first compound 0.08 µM) | relative viability ([2]; first compound 0.253 µM) | relative viability ([2]; first compound 0.8 µM) | relative viability ([2]; first compound 2.53 µM) | relative viability ([2]; first compound 8 µM) | relative viability ([3]; first compound 0.08 µM) | relative viability ([3]; first compound 0.253 µM) | relative viability ([3]; first compound 0.8 µM) | relative viability ([3]; first compound 2.53 µM) | relative viability ([3]; first compound 8 µM) | relative viability ([4]; first compound 0.08 µM) | relative viability ([4]; first compound 0.253 µM) | relative viability ([4]; first compound 0.8 µM) | relative viability ([4]; first compound 2.53 µM) | relative viability ([4]; first compound 8 µM)
1 | LU99A | 0.238 | 0.246 | 0.285 | 0.258 | 0.234 | 0.312 | 0.3 | 0.384 | 0.22 | 0.198 | 0.578 | 0.646 | 0.611 | 0.401 | 0.373 | 0.486 | 0.579 | 0.497 | 0.559 | 0.364
2 | LXF-289 | 0.694 | 0.675 | 0.6 | 0.652 | 0.623 | 0.174 | 0.19 | 0.137 | 0.159 | 0.197 | 0.203 | 0.216 | 0.246 | 0.242 | 0.205 | 1.04 | 1 | 0.966 | 0.971 | 0.941
3 | NCI-H23 | 0.21 | 0.203 | 0.196 | 0.242 | 0.243 | 0.355 | 0.454 | 0.413 | 0.411 | 0.366 | 0.739 | 0.933 | 0.916 | 0.823 | 0.849 | 0.705 | 0.607 | 0.754 | 0.6 | 0.573
4 | NCI-H522 | 1.16 | 1.13 | 1.12 | 1.22 | 0.819 | 0.544 | 0.46 | 0.546 | 0.587 | 0.62 | 0.938 | 0.97 | 0.788 | 0.837 | 0.982 |  |  |  |  | 
5 | NCI-H1299 |  |  |  |  |  |  |  |  |  |  |  |  |  |  |  | 0.953 | 1.04 | 1.05 | 1.04 | 1.02
6 | NCI-H1563 | 0.49 | 0.467 | 0.538 | 0.576 | 0.495 |  |  |  |  |  | 0.437 | 0.489 | 0.579 | 0.389 | 0.411 | 1.03 | 1.03 | 0.956 | 0.875 | 0.847
7 | NCI-H1648 |  |  |  |  |  | 0.419 |  | 0.572 | 0.383 | 0.396 |  |  |  |  |  |  |  |  |  | 
8 | NCI-H1650 | 0.194 | 0.202 | 0.227 | 0.199 | 0.186 | 0.352 | 0.498 | 0.421 | 0.405 | 0.343 | 0.286 | 0.383 | 0.351 | 0.376 | 0.335 |  |  |  |  | 
9 | NCI-H1703 |  |  |  |  |  |  |  |  |  |  |  |  |  |  |  | 0.354 | 0.282 | 0.41 | 0.22 | 0.184
10 | NCI-H1792 | 0.501 | 0.453 | 0.386 | 0.452 | 0.385 |  |  |  |  |  | 0.903 | 0.856 | 0.851 | 0.646 | 0.598 | 0.689 | 0.588 | 0.669 | 0.644 | 0.555
11 | NCI-H2342 | 0.775 | 0.597 | 0.71 | 0.771 | 0.871 | 0.497 | 0.601 | 0.549 | 0.45 | 0.613 | 0.281 | 0.399 | 0.287 | 0.329 | 0.338 |  |  |  |  | 
12 | SW 900 | 0.175 | 0.167 | 0.188 | 0.18 | 0.202 | 0.669 | 0.58 | 0.519 | 0.562 | 0.552 | 0.364 | 0.582 | 0.55 | 0.622 | 0.573 |  |  |  |  | 
